Test results taken from article PMC11602115 (Journal of Medicinal Chemistry, 2017).
Read-outs that look alike come from different tables or passages of the source.

Experiments:
human DP1 receptor = target: T1, human DP1 receptor (Homo sapiens, UniProt Q13258); test: HTRF cAMP assay, recombinant human DP1 receptor in CHO-K1 cells; format: cell-based; settings: for Emax: CHO-K1, intrinsic activity relative to 1 μM PGD2, read-out: hDP1 % IA; for EC50: HTRF (cAMP) human DP1 receptor assay, mean of at least three determinations, read-out: EC50 hDP1; for DP1 % I.A: cAMP HTRF agonist assay (Gs), Table Sup2
T1 construct: expressed in transfected cells
T1 sequence (Q13258 1-359): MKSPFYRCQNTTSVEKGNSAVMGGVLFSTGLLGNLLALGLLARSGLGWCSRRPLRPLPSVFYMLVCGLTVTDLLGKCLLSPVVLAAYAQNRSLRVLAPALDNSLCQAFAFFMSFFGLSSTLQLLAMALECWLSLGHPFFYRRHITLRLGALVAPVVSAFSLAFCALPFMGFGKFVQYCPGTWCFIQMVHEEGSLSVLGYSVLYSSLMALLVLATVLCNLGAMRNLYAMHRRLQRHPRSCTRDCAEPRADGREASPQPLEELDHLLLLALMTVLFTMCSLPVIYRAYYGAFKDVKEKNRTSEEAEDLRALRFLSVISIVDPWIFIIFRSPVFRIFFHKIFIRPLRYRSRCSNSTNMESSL

Plasma protein binding = format: in vitro ADME; settings: across all species
CYP 1A2 = CYP 1A2 (Homo sapiens, UniProt P05177); test: Cytochrome P450 inhibition, CYP1A2; format: in vitro ADME
Chain of CYP 1A2 (P05177 whole entry): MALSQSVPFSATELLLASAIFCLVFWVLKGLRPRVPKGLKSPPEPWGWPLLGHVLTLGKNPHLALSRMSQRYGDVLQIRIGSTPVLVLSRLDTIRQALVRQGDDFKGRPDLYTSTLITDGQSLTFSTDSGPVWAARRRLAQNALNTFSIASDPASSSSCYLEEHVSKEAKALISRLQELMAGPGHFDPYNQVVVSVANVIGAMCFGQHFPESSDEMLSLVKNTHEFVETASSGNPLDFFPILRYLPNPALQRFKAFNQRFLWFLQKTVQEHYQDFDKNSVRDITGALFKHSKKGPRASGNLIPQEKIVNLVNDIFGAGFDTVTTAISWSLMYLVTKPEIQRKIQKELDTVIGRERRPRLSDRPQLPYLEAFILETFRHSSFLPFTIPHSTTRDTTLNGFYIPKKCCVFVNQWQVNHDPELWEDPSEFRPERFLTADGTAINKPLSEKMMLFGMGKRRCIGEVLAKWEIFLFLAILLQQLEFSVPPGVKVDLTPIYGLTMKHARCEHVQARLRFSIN

Rat PK (iv and oral) = format: in vivo; settings: for AUC(0-inf) / bioavailability: Sprague-Dawley; for AUC(0-inf): after oral administration 10 mg/kg (5m 10.5); for bioavailability: po, 10 mg/kg; for unbound Cmax plasma concentration: single oral dose 30 mg/kg, based on 1% free fraction of the measured Cmax
[1] = Stability in human microsome preparations; format: in vitro ADME; settings: incubation at 37 °C, human microsomes; read-out: human MS, T1/2
Excerpt: Table 1 Screening Data for Selected Analogues ^a | column: human and rat MS, T1/2 (min) ^g

CYP 2C8 = CYP 2C8 (Homo sapiens, UniProt P10632); test: Cytochrome P450 inhibition, CYP2C8; format: in vitro ADME
Chain of CYP 2C8 (P10632 whole entry): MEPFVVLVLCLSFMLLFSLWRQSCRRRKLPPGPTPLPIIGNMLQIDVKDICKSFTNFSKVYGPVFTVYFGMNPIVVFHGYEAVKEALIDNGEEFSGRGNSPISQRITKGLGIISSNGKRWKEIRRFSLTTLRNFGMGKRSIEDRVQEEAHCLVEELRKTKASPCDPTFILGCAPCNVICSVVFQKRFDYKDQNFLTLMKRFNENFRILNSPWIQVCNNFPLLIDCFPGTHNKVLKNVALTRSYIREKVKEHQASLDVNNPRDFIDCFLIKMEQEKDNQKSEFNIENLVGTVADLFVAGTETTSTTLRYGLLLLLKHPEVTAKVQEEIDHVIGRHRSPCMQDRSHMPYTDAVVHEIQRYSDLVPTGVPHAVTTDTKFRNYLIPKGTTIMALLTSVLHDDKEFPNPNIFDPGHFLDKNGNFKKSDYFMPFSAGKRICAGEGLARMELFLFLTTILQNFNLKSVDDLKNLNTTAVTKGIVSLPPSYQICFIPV

EP2 = EP2 (Homo sapiens, UniProt P43116); test: Radioligand binding, EP2 ([3H]-PGE2); design: purchased MDS Pharma (Taiwan) and CEREP (France), contract assays; settings: cloned human receptor; mean of two determinations
Chain of EP2 (P43116 whole entry): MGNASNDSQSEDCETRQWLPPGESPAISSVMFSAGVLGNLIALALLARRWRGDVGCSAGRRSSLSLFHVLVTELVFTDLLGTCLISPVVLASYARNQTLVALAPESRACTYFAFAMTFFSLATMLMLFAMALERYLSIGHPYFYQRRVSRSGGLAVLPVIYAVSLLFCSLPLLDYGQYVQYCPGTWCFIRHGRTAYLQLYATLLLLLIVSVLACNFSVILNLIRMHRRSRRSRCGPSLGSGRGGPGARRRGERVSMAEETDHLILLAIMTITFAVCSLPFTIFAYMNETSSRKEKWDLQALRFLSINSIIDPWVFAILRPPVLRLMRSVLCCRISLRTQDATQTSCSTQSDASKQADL
Description: (§1) Additional (non-IP) receptor binding assays were carried out by MDS Pharma (Taiwan) and CEREP (France).

DP1 = DP1 (Homo sapiens, UniProt Q13258); test: Radioligand binding, DP1 ([3H]-PGD2); settings: cloned human receptor; mean of two determinations
Description: as §1

CYP 2C9 = CYP 2C9 (Homo sapiens, UniProt P11712); test: Cytochrome P450 inhibition, CYP2C9; format: in vitro ADME
Chain of CYP 2C9 (P11712 whole entry): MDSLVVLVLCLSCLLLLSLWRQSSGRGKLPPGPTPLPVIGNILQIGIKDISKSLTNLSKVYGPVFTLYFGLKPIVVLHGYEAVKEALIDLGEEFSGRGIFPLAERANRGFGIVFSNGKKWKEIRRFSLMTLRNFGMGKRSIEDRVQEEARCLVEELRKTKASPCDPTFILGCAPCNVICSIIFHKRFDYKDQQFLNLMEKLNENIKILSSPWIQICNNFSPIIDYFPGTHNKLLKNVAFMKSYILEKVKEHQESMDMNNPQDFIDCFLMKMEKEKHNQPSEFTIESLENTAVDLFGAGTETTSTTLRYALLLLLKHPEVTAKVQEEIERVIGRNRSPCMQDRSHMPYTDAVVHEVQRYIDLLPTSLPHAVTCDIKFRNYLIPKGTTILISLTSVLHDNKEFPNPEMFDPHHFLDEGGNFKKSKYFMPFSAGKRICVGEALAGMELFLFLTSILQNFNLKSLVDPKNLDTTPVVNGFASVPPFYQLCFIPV

EP1 = target: T2, EP1 (Homo sapiens, UniProt P34995); test: cAMP HTRF agonist assay, EP1; format: cell-based
T2 sequence (P34995 1-402): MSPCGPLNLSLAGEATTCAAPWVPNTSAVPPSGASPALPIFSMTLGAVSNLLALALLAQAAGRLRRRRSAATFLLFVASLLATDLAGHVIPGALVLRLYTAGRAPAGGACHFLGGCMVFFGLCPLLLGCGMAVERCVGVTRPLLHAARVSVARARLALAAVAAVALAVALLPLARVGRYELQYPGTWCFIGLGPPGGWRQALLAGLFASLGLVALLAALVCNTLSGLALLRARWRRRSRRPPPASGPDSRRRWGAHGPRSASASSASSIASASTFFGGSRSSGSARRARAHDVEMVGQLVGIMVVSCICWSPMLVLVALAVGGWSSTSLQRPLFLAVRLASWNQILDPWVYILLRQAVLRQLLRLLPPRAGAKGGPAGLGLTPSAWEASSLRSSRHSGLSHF
Excerpt: Table Sup2: Data with some comparator compounds in functional assays.
Compound DP1 EP1 EP2 EP3v6 EP4
EC50, µµµµM (% I.A) EC50, µµµµM (% I.A) EC50, µµµµM (% I.A) EC50, µµµµM (% I.A) EC50, µµµµM (% I.A)
n = 3 n = 2 n = 8 n = 6 n = 6 […]

IP = IP (Homo sapiens, UniProt P43119); test: Recombinant human IP receptor cAMP assay after elimination of receptor reserve (transient CHO); format: cell-based; design: expressed in transfected cells; settings: following elimination of receptor reserve
Chain of IP (P43119 whole entry): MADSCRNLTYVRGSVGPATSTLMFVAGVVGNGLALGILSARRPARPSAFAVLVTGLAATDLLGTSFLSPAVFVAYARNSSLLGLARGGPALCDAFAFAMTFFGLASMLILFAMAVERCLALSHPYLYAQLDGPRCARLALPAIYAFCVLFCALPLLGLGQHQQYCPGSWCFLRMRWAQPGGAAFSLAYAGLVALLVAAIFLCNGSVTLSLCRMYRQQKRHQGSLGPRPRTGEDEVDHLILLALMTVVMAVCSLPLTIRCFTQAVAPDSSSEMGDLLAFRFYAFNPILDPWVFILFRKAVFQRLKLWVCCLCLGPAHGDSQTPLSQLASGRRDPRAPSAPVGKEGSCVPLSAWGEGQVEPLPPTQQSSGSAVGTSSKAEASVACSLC
Excerpt: Additional In Vitro Assays
To determine the potency and efficacy of compounds in cAMP assays in the absence of receptor reserve effects, the cDNA sequence of the human IP receptor was subqcloned into an expression plasmid containing a ubiquitin promoter in place of the more commonly used CMV promoter. The ubiquitin […]
level of receptor expression after transfection into a suitable cell line. This plasmid was transiently transfected into CHO cells using lipofectamine, following standard protocols. The quantity of transfected plasmid DNA was titrated down from 16 µg to 1 ng per transfection using empty vector as carrier DNA.

[2] = read-out: plasma protein binding
[3] = terminal half-life after iv 2 mg/kg (5m 2.1)
[4] = total clearance, iv 2 mg/kg (5m 2.1)

SMILES: O=C(O)COC[C@H]1CC[C@H](COC(=O)N(c2ccccc2)c2cccc(F)c2)CC1 [5g, 2-(((1r,4r)-4-(((3-Fluorophenyl)(phenyl)carbamoyloxy)methyl)cyclohexyl)methoxy)acetic Acid]
- Emax (human DP1 receptor): 61%
- EC50 (human DP1 receptor): 2760 nM
- fraction unbound (Plasma protein binding; read-out: free fraction): 0.01
- fraction unbound (Plasma protein binding; [2]): ~0.01
- IC50 (CYP 1A2): > 50000 nM
- AUC(0-inf) (Rat PK (iv and oral); plasma): 7900 ng·h/mL
- bioavailability (Rat PK (iv and oral); plasma): 39%
- Cmax (Rat PK (iv and oral); po 10 mg/kg (5m 10.5)): 3400 ng/mL
- Tmax (Rat PK (iv and oral); po 10 mg/kg (5m 10.5)): 0.3 h
- unbound Cmax plasma concentration (Rat PK (iv and oral)): 300 nM
- T1/2 (Rat PK (iv and oral); [3]): 3.4 h
- Clobs (Rat PK (iv and oral); [4]): 1.2 L h^–1 kg^–1
- half-life [1]: > 1 h
- IC50 (CYP 2C8): > 50000 nM
- Ki (EP2): 570 nM
- Ki (DP1): 1850 nM
- IC50 (CYP 2C9): > 50000 nM

SMILES: CC#CCC(C)[C@H](O)/C=C/[C@@H]1[C@H]2C/C(=C/CCCC(=O)O)C[C@H]2C[C@H]1O (stereo partly drawn) [iloprost]
- Emax (human DP1 receptor): 42%
- EC50 (human DP1 receptor): 147 nM
- DP1 % I.A (human DP1 receptor): 42%
- EC50 (EP1): 47 nM
- EP1 % I.A (EP1): 48%
- Efficacy (% vs. Iloprost) [95% CI], recombinant IP receptor cAMP (IP): 100%

SMILES: O=C(O)COC[C@H]1CC[C@H](COC(=O)N(c2ccccc2)c2ccc(Cl)cc2)CC1 [5c, Sodium 2-(((1r,4r)-4-(((4-Chlorophenyl)(phenyl)carbamoyloxy)methyl)cyclohexyl)methoxy)acetate]
- Emax (human DP1 receptor): 52%
- EC50 (human DP1 receptor): 850 nM
- DP1 % I.A (human DP1 receptor): 52%
- fraction unbound (Plasma protein binding; read-out: free fraction): 0.01
- fraction unbound (Plasma protein binding; [2]): ~0.01
- IC50 (CYP 1A2): > 50000 nM
- half-life (Rat PK (iv and oral); CD-1 (mouse), Sprague-Dawley (rat), plasma, oral, rodents, read-out: elimination half-life in rodents): 5 to 8 h
- AUC(0-inf) (Rat PK (iv and oral); plasma): 14600 ng·h/mL
- bioavailability (Rat PK (iv and oral); plasma): 57%
- AUC0–inf (Rat PK (iv and oral); iv 2 mg/kg (Table 4)): 5090 ± 1620 ng·h/mL
- Clobs (Rat PK (iv and oral); iv 2 mg/kg (Table 4)): 0.427 ± 0.163 L h^–1 kg^–1
- T1/2 (Rat PK (iv and oral); iv 2 mg/kg (Table 4)): 6.72 ± 0.98 h
- unbound Cmax (Rat PK (iv and oral); oral 10 mg/kg, calculated from the PK experiment): around 100 nM
- Cmax (Rat PK (iv and oral); po 10 mg/kg (5m 10.5)): 3700 ng/mL
- Tmax (Rat PK (iv and oral); po 10 mg/kg (5m 10.5)): 1.5 h
- Cmax (Rat PK (iv and oral); po 10.0 mg/kg (Table 4)): 3700 ± 1340 ng/mL
- F (Rat PK (iv and oral); po 10.0 mg/kg (Table 4)): 57.4%
- T1/2 (Rat PK (iv and oral); po 10.0 mg/kg (Table 4)): 5.45 ± 1.52 h
- unbound Cmax plasma concentration (Rat PK (iv and oral)): 300 nM
- T1/2 (Rat PK (iv and oral); [3]): 6.7 h
- Clobs (Rat PK (iv and oral); [4]): 0.43 L h^–1 kg^–1
- half-life [1]: > 1 h
- EC50 (EP1): > 10000 nM
- IC50 (CYP 2C8): > 50000 nM
- Efficacy (% vs. Iloprost) [95% CI], recombinant IP receptor cAMP (IP): 67 [64, 71] %
- Ki (EP2): 610 nM
- Ki (DP1): 2600 nM
- IC50 (CYP 2C9): > 50000 nM
